Data: ChEMBL document CHEMBL4630908 (2021)
The source made the active and inactive calls. The rule behind the calls is not given here.

Experiments:
[1] = target: Histone acetyltransferase KAT2B (Homo sapiens, UniProt Q92831); assay: PCAF DiscoverX BROMOscan
[2] = target: T1, Bromodomain testis-specific protein (Homo sapiens, UniProt Q58F21); assay: TR-FRET assay (BRDT BD2)
[3] = target: Alpha-2B adrenergic receptor (Homo sapiens) (UniProt P18089); conditions: Compound concentration 10.0 uM
[4] = target: T2, Bromodomain-containing protein 3 (Homo sapiens, UniProt Q15059); assay: BRD3(2) DiscoverX BROMOscan
T2 sequence (Q15059 whole entry): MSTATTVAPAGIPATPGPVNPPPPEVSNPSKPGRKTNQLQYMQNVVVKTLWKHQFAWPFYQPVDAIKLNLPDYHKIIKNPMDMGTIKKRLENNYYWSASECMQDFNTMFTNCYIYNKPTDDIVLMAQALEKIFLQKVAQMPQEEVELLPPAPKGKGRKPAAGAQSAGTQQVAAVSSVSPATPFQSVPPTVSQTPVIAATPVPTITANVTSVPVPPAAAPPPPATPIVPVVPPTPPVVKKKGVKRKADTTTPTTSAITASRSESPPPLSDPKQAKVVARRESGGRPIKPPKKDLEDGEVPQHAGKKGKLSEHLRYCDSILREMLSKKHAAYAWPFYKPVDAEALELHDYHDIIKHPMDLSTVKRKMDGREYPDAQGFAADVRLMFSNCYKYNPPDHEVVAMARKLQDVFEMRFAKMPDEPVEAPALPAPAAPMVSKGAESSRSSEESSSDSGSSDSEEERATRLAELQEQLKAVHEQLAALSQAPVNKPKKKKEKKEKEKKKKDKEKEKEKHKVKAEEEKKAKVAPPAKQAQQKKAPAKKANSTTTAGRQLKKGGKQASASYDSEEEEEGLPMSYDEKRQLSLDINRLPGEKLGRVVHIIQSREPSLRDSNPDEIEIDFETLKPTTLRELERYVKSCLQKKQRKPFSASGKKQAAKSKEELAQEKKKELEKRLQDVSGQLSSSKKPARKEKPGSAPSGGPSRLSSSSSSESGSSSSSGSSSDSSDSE

[5] = target: Muscarinic acetylcholine receptor M3 (Homo sapiens) (UniProt P20309); conditions: Compound concentration 10.0 uM
[6] = target: Alpha-2C adrenergic receptor (Homo sapiens, UniProt P18825); assay: Cross screening panel
[7] = target: Bromodomain-containing protein 1 (Homo sapiens, UniProt O95696); assay: BRD1 DiscoverX BROMOscan
Bromodomain-containing protein 1, sequence (O95696 whole entry): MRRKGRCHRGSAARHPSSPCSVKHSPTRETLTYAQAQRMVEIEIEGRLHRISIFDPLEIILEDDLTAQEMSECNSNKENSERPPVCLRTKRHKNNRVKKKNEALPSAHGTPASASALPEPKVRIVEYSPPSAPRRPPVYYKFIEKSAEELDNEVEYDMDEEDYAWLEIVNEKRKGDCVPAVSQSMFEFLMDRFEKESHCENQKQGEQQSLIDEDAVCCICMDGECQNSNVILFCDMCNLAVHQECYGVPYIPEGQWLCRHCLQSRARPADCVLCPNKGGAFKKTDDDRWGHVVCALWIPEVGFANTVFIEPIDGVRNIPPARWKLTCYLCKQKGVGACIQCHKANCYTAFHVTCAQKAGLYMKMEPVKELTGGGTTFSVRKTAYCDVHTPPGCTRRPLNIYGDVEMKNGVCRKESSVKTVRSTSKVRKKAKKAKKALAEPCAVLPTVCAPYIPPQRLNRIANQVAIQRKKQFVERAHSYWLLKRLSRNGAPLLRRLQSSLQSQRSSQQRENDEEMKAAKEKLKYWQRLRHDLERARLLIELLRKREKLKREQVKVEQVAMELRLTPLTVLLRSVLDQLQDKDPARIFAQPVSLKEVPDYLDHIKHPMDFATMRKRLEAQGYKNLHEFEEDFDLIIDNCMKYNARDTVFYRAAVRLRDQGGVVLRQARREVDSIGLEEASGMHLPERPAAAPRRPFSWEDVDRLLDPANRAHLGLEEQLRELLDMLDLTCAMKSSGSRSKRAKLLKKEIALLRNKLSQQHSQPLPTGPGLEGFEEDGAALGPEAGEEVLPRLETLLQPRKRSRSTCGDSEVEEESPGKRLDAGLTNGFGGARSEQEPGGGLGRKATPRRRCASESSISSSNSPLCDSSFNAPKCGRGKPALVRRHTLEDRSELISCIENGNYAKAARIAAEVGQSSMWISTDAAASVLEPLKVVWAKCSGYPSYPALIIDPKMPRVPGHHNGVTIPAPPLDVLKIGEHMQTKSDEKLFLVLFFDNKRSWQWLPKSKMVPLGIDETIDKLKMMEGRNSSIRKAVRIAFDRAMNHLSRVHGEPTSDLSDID

D(1A) dopamine receptor = D(1A) dopamine receptor (Homo sapiens, UniProt P21728); conditions: Compound concentration 10.0 uM
D(1A) dopamine receptor, sequence (P21728 whole entry): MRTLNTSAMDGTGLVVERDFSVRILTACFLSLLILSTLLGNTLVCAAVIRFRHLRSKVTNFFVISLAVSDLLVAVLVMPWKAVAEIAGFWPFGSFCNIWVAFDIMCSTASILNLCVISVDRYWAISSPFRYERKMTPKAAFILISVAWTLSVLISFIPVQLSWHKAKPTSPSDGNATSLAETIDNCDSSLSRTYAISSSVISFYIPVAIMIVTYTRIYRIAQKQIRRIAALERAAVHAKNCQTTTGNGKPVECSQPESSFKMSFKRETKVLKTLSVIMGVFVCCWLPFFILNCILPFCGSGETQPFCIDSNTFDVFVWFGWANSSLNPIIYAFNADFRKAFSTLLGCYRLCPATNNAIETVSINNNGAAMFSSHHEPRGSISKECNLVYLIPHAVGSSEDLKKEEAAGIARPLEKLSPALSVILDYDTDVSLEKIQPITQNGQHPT

[8] = target: T1, Bromodomain testis-specific protein; assay: BRDT BD1 Bromoscan (DiscoverX)
[9] = target: T1, Bromodomain testis-specific protein; assay: BET mutant TR-FRET assay (BRDT BD1)
[10] = target: Beta-2 adrenergic receptor (Homo sapiens, UniProt P07550); conditions: Compound concentration 10.0 uM
Beta-2 adrenergic receptor, sequence (P07550 whole entry, looked up): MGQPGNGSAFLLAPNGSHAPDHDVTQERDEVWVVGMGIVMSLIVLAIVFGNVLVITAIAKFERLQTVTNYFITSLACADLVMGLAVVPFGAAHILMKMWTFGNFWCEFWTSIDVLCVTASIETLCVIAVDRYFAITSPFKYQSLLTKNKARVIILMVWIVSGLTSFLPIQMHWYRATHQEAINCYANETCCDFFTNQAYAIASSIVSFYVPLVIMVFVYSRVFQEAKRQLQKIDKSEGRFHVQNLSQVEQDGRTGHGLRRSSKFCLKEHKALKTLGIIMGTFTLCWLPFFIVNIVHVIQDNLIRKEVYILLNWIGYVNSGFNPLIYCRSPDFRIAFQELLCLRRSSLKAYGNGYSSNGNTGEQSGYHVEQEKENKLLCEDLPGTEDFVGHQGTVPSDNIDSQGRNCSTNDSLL

[11] = target: GABA-A receptor; anion channel (Rattus norvegicus) (UniProt O09028+P15431+P18506+P18508+P19969+P20236+P23574+P23576+P28471+P28473+P30191+P62813+P63079+P63138+Q91ZM7+Q9ES14); conditions: Compound concentration 10.0 uM
[12] = target: Chromatin remodeling regulator CECR2 (Homo sapiens, UniProt Q9BXF3); assay: CECR2 DiscoverX BROMOscan
[13] = target: Transcription intermediary factor 1-alpha (Homo sapiens, UniProt O15164); assay: TRIM24(PHD,Bromo.) DiscoverX BROMOscan
[14] = target: Muscarinic acetylcholine receptor M2 (Homo sapiens) (UniProt P08172); conditions: Compound concentration 10.0 uM
[15] = target: T2, Bromodomain-containing protein 3; assay: BRD3(1,2) DiscoverX BROMOscan
[16] = target: 5-hydroxytryptamine receptor 1D (Homo sapiens, UniProt P28221); assay: GPCRScan assay: inhibition of 5-HT1D; set-up: radioligand conc. used [nm] 1.0 – 2.0, parental cells HEKT
[17] = target: T3, Bromodomain-containing protein 2 (Homo sapiens, UniProt P25440); assay: BRD2 BD1 Bromoscan (DiscoverX)
T3 sequence (P25440 whole entry): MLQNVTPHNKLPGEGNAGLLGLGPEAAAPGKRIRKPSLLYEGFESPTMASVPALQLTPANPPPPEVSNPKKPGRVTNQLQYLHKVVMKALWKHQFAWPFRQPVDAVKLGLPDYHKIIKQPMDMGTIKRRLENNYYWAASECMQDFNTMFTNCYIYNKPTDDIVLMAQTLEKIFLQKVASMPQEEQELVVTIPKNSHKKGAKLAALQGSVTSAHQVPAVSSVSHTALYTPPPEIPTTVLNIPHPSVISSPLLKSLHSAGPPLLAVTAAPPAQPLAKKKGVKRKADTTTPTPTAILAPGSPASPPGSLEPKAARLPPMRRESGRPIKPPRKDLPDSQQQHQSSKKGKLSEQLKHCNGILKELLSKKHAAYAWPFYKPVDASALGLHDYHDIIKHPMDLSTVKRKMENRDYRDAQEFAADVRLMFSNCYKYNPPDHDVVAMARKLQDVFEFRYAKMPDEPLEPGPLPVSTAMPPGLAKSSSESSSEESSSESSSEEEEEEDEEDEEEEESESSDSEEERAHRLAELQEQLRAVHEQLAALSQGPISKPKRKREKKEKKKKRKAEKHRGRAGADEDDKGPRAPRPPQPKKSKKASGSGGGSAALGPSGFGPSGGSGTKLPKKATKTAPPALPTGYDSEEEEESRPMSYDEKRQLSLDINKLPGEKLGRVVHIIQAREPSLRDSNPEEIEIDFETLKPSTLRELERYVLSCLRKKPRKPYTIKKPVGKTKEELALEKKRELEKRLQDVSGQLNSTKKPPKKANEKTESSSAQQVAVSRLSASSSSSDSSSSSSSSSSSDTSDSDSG

[18] = target: Kappa-type opioid receptor (Homo sapiens, UniProt P41145); conditions: Compound concentration 10.0 uM
[19] = target: T3, Bromodomain-containing protein 2; assay: BRD2 BD2 Bromoscan (DiscoverX)
[20] = target: Bromodomain-containing protein 7 (Homo sapiens, UniProt Q9NPI1); assay: BRD7 DiscoverX BROMOscan
[21] = target: Transcription initiation factor TFIID subunit 1-like (Homo sapiens, UniProt Q8IZX4); assay: TAF1L(2) DiscoverX BROMOscan
[22] = target: T2, Bromodomain-containing protein 3; assay: BRD3(1) DiscoverX BROMOscan

Alpha-2B adrenergic receptor (Homo sapiens), sequence (P18089 whole entry): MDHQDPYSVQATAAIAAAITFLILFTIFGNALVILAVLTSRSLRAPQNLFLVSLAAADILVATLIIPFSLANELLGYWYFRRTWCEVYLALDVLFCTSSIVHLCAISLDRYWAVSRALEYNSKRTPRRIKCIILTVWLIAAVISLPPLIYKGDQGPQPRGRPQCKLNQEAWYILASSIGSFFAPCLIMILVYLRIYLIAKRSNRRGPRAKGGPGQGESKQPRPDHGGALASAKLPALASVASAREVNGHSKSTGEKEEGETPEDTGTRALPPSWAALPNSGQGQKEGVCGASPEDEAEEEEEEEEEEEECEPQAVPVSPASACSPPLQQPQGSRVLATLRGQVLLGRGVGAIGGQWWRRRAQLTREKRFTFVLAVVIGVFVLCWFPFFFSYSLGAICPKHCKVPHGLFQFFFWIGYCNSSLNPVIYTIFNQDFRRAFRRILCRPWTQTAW
Histone acetyltransferase KAT2B, sequence (Q92831 whole entry): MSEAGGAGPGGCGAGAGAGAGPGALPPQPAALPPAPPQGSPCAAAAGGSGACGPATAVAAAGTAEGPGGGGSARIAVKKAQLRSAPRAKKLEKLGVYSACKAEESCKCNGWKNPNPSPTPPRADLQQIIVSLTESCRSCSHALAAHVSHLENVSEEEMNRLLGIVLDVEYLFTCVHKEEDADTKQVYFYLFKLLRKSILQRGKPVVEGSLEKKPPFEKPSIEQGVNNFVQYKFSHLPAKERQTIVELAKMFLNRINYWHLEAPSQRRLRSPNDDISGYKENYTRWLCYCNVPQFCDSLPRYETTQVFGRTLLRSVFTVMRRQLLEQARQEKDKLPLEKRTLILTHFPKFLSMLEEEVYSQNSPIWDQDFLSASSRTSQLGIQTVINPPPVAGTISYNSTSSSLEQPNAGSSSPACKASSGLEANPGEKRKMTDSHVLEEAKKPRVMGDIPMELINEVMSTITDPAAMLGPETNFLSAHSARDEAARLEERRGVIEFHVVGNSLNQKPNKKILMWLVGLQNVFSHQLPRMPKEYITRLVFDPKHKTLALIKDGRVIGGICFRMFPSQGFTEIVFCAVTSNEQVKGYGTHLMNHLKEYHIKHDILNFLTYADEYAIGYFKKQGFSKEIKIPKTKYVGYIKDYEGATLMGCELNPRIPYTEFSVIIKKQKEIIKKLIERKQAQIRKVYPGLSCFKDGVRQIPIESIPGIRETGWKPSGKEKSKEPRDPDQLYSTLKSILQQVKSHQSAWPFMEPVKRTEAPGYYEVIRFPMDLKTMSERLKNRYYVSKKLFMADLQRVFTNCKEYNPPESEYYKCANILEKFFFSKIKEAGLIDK

## CC(=O)Nc1c(F)cc(C(=O)N[C@H]2CC[C@H](O)CC2)cc1O[C@@H](C)c1ccccc1 [GSK046]
[1]
  Kd: 30 µM
[2]
  IC50: 214 nM (active)
[3]
  inhibition: 3.38%
[4]
  Kd: 33 nM
[5]
  inhibition: 16%
[6]
  EC50: > 100 µM
[7]
  Kd: 30 µM
D(1A) dopamine receptor
  inhibition: 4.11%
[8]
  Kd: 2.45 µM (not active)
[9]
  pIC50: 4.3
[10]
  inhibition: 28.1%
[11]
  inhibition: 15.3%
[12]
  Kd: 30 µM
[13]
  Kd: 30 µM
[14]
  inhibition: 18.1%
[15]
  Kd: 47 nM
[16]
  Ki: 3.44 µM
[17]
  Kd: 1.62 µM (not active)
[18]
  inhibition: 9.38%
[19]
  Kd: 35 nM (active)
[20]
  Kd: 30 µM
[21]
  Kd: 30 µM
[22]
  Kd: 2080 nM
